Assay results reported in ChEMBL document CHEMBL1201862, “PubChem BioAssay data set” (2004).
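Each compound was tested at five concentrations against cells in 96-well plates for 48 hours. GI50 = concentration required for 50% inhibition of growth.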 Calls of active or inactive are those of the source. Cut-off read from the data, not from the text of the source: active = GI50 up to about 1.1 µM and inactive = higher. Bridge positions count the residues as written; N and C are the ends. Square brackets hold non-standard residues; d marks the D form. Peptide text beside a SMILES is read from it. * marks the point of attachment. Cya = N[CH](CS(=O)(=O)O)C(=O)O; X49 = CC(C)CCCCCCCC(O)CC(=O)*; GABA = NCCCC(=O)O

Legend:
Assay in all cases: inhibition of tumour cell growth, NCI panel, 48 h
SNB-75 = tested on: SNB-75
UACC-62 = tested on: UACC-62
OVCAR-5 = tested on: OVCAR-5
NCI-H226 = tested on: NCI-H226
RXF 393 = tested on: RXF 393
K562 = tested on: K562
HOP-92 = tested on: HOP-92
EKVX = tested on: EKVX
OVCAR-3 = tested on: OVCAR-3
SW-620 = tested on: SW-620
TK-10 = tested on: TK-10
SK-OV-3 = tested on: SK-OV-3
CCRF-CEM = tested on: CCRF-CEM
Malme-3M = tested on: Malme-3M
SK-MEL-5 = tested on: SK-MEL-5
NCI-H460 = tested on: NCI-H460
SF-295 = tested on: SF-295
COLO 205 = tested on: COLO 205
LOX IMVI = tested on: LOX IMVI
NCI-H522 = tested on: NCI-H522

Measured: GI50

Cc1c2c3ccccc3nc-2n(C)c2ccccc12
active: SW-620 1.11 µM | CCRF-CEM 0.724 µM | SK-MEL-5 0.437 µM | NCI-H460 0.396 µM
inactive: SNB-75 2.48 µM | UACC-62 1.7 µM | OVCAR-5 2.61 µM | NCI-H226 2.77 µM | RXF 393 1.99 µM | K562 1.3 µM | HOP-92 2.61 µM | EKVX 2.43 µM | OVCAR-3 1.77 µM | TK-10 1.94 µM | SK-OV-3 1.25 µM | Malme-3M 2.08 µM | SF-295 3.7 µM

COC(=O)C1=C(O)C(C(=O)OC)[C@]2(O)[C@H](C(=O)OC)[C@H]1C[C@@H](c1ccc(Cl)cc1)[C@H]2C(=O)OC (some centres not stated)
inactive: COLO 205 10 µM | SNB-75 13.6 µM | UACC-62 7.69 µM | OVCAR-5 14.5 µM | NCI-H226 8.18 µM | RXF 393 4.62 µM | LOX IMVI 10.7 µM | K562 4.27 µM | HOP-92 19.3 µM | EKVX 10.9 µM | OVCAR-3 2.94 µM | SW-620 7.29 µM | TK-10 13 µM | SK-OV-3 2.7 µM | CCRF-CEM 2.3 µM | Malme-3M 6.56 µM | SK-MEL-5 6.41 µM | NCI-H460 5.45 µM | SF-295 4.28 µM

CN(C)c1ccc(/C=c2\sc3nc4ccccc4n3c2=O)cc1
inactive: COLO 205 > 100 µM | SNB-75 32.8 µM | UACC-62 > 100 µM | OVCAR-5 > 100 µM | NCI-H226 > 100 µM | NCI-H522 > 100 µM | RXF 393 77.6 µM | LOX IMVI > 100 µM | K562 > 100 µM | HOP-92 > 100 µM | EKVX > 100 µM | OVCAR-3 > 100 µM | SW-620 > 100 µM | TK-10 > 100 µM | Malme-3M > 100 µM | SK-MEL-5 > 100 µM | NCI-H460 > 100 µM | SF-295 > 100 µM

COC(=O)C(Cc1c[nH]c2ccccc12)NP(=O)(O)OCC1OC(n2cc(I)c(=O)[nH]c2=O)CC1O (configuration not stated)
inactive: COLO 205 > 100 µM | SNB-75 > 100 µM | UACC-62 > 100 µM | OVCAR-5 > 100 µM | NCI-H226 > 100 µM | NCI-H522 > 100 µM | LOX IMVI > 100 µM | K562 > 100 µM | HOP-92 > 100 µM | EKVX > 100 µM | OVCAR-3 > 100 µM | SW-620 > 100 µM | TK-10 > 100 µM | SK-OV-3 > 100 µM | CCRF-CEM > 100 µM | Malme-3M > 100 µM | SK-MEL-5 > 100 µM | NCI-H460 > 100 µM | SF-295 > 100 µM

Cc1c(C(=O)O)n2c(C)nnc2c2ccccc12
inactive: COLO 205 > 100 µM | SNB-75 36 µM | UACC-62 > 100 µM | OVCAR-5 > 100 µM | NCI-H226 > 100 µM | NCI-H522 > 100 µM | RXF 393 > 100 µM | LOX IMVI > 100 µM | K562 > 100 µM | HOP-92 > 100 µM | EKVX > 100 µM | OVCAR-3 > 100 µM | SW-620 > 100 µM | TK-10 > 100 µM | SK-OV-3 > 100 µM | CCRF-CEM > 100 µM | SK-MEL-5 > 100 µM | NCI-H460 > 100 µM | SF-295 > 100 µM

CCCCCCOc1ccc(C(=O)NOCc2ccccc2)cc1
inactive: COLO 205 > 100 µM | SNB-75 > 100 µM | UACC-62 > 100 µM | OVCAR-5 > 100 µM | NCI-H226 > 100 µM | NCI-H522 > 100 µM | RXF 393 > 100 µM | LOX IMVI > 100 µM | K562 35.6 µM | HOP-92 > 100 µM | EKVX > 100 µM | OVCAR-3 > 100 µM | SW-620 > 100 µM | TK-10 > 100 µM | SK-OV-3 > 100 µM | CCRF-CEM 90.2 µM | SK-MEL-5 > 100 µM | NCI-H460 > 100 µM | SF-295 > 100 µM

CCOC(=O)c1csc(-c2cn(C)c3c2C(=O)C(OC)=CC3=O)n1
inactive: COLO 205 26.9 µM | SNB-75 30.3 µM | UACC-62 21.2 µM | OVCAR-5 31.1 µM | NCI-H226 > 83 µM | NCI-H522 36.6 µM | RXF 393 23.6 µM | LOX IMVI 2.6 µM | K562 21.6 µM | HOP-92 40.5 µM | EKVX > 86.3 µM | OVCAR-3 5.82 µM | SW-620 55.2 µM | TK-10 > 100 µM | SK-OV-3 69 µM | CCRF-CEM 72.8 µM | SK-MEL-5 3.91 µM | NCI-H460 8.73 µM | SF-295 25 µM

CC(C)CCCCCCCC(O)CC(=O)NC(CS(=O)(=O)O)C(=O)NC(CC(C)C)C(=O)NCCCC(=O)NC(Cc1c[nH]cn1)C(=O)NC(C)C(=O)NC1C(=O)NC(C(C)O)C(=O)NC(Cc2c[nH]cn2)C(=O)NC(C)C(=O)NC(C(C)O)C(=O)OC1C (configuration not stated) (X49-[Cya]L[GABA]HATTHAT; ester 6-C; configuration not given here)
inactive: COLO 205 > 25 µM | SNB-75 > 25 µM | UACC-62 > 25 µM | OVCAR-5 > 25 µM | NCI-H226 > 25 µM | NCI-H522 > 25 µM | LOX IMVI > 25 µM | K562 > 25 µM | HOP-92 > 25 µM | EKVX > 25 µM | OVCAR-3 > 25 µM | SW-620 > 25 µM | TK-10 > 25 µM | SK-OV-3 > 25 µM | CCRF-CEM > 25 µM | Malme-3M > 25 µM | SK-MEL-5 > 25 µM | NCI-H460 > 25 µM | SF-295 > 25 µM

Cc1nc(O)nc(NNCc2ccc(Cl)cc2)c1C(=O)Nc1ccc(Cl)cc1
inactive: COLO 205 > 100 µM | SNB-75 > 100 µM | UACC-62 3.69 µM | OVCAR-5 > 100 µM | NCI-H226 > 100 µM | RXF 393 > 100 µM | LOX IMVI > 100 µM | HOP-92 > 100 µM | OVCAR-3 > 100 µM | SW-620 > 100 µM | TK-10 > 100 µM | SK-OV-3 > 100 µM | CCRF-CEM > 100 µM | Malme-3M > 100 µM | SK-MEL-5 > 100 µM | NCI-H460 > 100 µM | SF-295 > 100 µM

Cn1c(-c2ccccc2)cc(-c2ccc3c(c2)OCO3)c1-c1ccsc1
inactive: COLO 205 > 100 µM | SNB-75 > 100 µM | UACC-62 > 100 µM | OVCAR-5 > 100 µM | NCI-H226 > 100 µM | RXF 393 > 100 µM | LOX IMVI > 100 µM | K562 > 100 µM | HOP-92 > 100 µM | EKVX > 100 µM | OVCAR-3 > 100 µM | SW-620 > 100 µM | TK-10 > 100 µM | SK-OV-3 > 100 µM | CCRF-CEM > 100 µM | SK-MEL-5 > 100 µM | NCI-H460 > 100 µM | SF-295 > 100 µM

ClCc1c(-c2ccccc2)nn(-c2ccccc2)c1CCl
active: NCI-H522 0.165 µM
inactive: COLO 205 5.94 µM | SNB-75 4.18 µM | UACC-62 7.18 µM | OVCAR-5 19.4 µM | NCI-H226 26.5 µM | RXF 393 12.4 µM | HOP-92 2.81 µM | OVCAR-3 13.5 µM | SW-620 2.03 µM | TK-10 14.6 µM | Malme-3M 16.4 µM | SK-MEL-5 12.4 µM | SF-295 17.2 µM

CN1C(=O)c2c(c3c4ccccc4n(C)c3c3c2c2ccccc2n3C)C1=O
inactive: COLO 205 > 100 µM | SNB-75 > 100 µM | UACC-62 > 100 µM | OVCAR-5 > 100 µM | NCI-H226 > 100 µM | NCI-H522 > 100 µM | LOX IMVI > 100 µM | K562 > 100 µM | HOP-92 > 100 µM | EKVX > 100 µM | OVCAR-3 58.6 µM | SW-620 > 100 µM | TK-10 > 100 µM | SK-OV-3 > 100 µM | CCRF-CEM > 100 µM | Malme-3M > 100 µM | SK-MEL-5 > 100 µM | NCI-H460 > 100 µM | SF-295 > 100 µM

Fc1sc2c(c1F)C1CCC2C1 (configuration not stated)
inactive: COLO 205 43.2 µM | SNB-75 > 100 µM | UACC-62 51.8 µM | OVCAR-5 > 100 µM | NCI-H226 > 100 µM | NCI-H522 > 100 µM | RXF 393 88.1 µM | LOX IMVI 42.5 µM | HOP-92 > 100 µM | EKVX > 100 µM | OVCAR-3 41.9 µM | SW-620 > 100 µM | TK-10 > 100 µM | SK-OV-3 > 100 µM | Malme-3M > 100 µM | SK-MEL-5 > 100 µM | NCI-H460 > 100 µM | SF-295 > 100 µM

CN(C)C1(c2cc3ccccc3s2)CCCCC1
active: SW-620 0.125 µM | CCRF-CEM < 0.01 µM
inactive: COLO 205 26.4 µM | SNB-75 32.6 µM | UACC-62 20.5 µM | OVCAR-5 22.5 µM | NCI-H226 44.9 µM | NCI-H522 16.7 µM | RXF 393 25.5 µM | LOX IMVI 22.5 µM | K562 18 µM | HOP-92 1.79 µM | EKVX > 100 µM | OVCAR-3 48.6 µM | TK-10 47.2 µM | SK-OV-3 39.5 µM | SK-MEL-5 17.4 µM | NCI-H460 29.2 µM | SF-295 26.6 µM

CCN1/C(=C/C#C/C(C)=C\c2sc3ccccc3[n+]2CC)Sc2ccccc21
active: NCI-H226 0.631 µM | NCI-H522 0.377 µM | K562 0.269 µM | SW-620 0.593 µM | Malme-3M 1.11 µM
inactive: COLO 205 1.27 µM | SNB-75 1.53 µM | UACC-62 2.55 µM | OVCAR-5 3.44 µM | RXF 393 2.14 µM | LOX IMVI 2.33 µM | HOP-92 2 µM | EKVX 1.33 µM | TK-10 3.24 µM | SK-OV-3 10.6 µM | SK-MEL-5 2.02 µM | NCI-H460 2.53 µM | SF-295 2.94 µM
